# Assay results from patent US7528224B1, “Peptide for triggering an immune reaction against tumor cells” (Immatics Biotechnologies GmbH, priority 1999, dated 2009).
# Ends that are not written are not given here.
# Legend:
# cytotoxic T cells = assay: Induction of cytotoxic T cells in vitro with peptide-pulsed dendritic cells; format: cell-based, human; conditions: dendritic cells incubated with 50 μg/ml synthetic peptide, autologous mononuclear cells
# Method: As e.g. described by Brossart, P., et al., Cancer Res 58 (1998), pages 732 ff.; first of all, mononuclear cells of peripheral blood were isolated from buffy coat preparations of heparinized blood of three healthy donators by Ficoll/Paque (Gibco-BRL, Grand Island, N.Y.) density-gradient centrifugation. The cells were seeded in cell culture bowls in RP10 medium.
# 5×10^5 dendritic cells from 1.1 were incubated with 50 μg/ml synthetic peptide from 1.2 for two hours, washed, and incubated with 2.5×10^6 autologous, i.e. coming from the same donators, mononuclear cells of periphery blood in RP10 medium. Additionally to the control peptides and the potentially HLA-A2 binding peptides the dendritic cells were partly incubated with 50 μg/ml of a PAN-HLA-DR-binding peptide which represents a T helper epitope.
# After seven days of cultivation, the cells were again stimulated by adding autologous, mononuclear cells of peripheral blood pre-incubated with the synthetic peptide from 1.2. On the first, third and fifth day, respectively, 1 ng/ml human recombinant IL-2 (Genzyme) was added. The cytokine IL-2 is necessary for the cultivation and reproduction of cytotoxic T cells. Altogether, stimulation was effected up to three times in an interval of a week.
# T2 cells = assay: 51Cr release cytotoxic T cell activity on peptide-pre-incubated T2 cells; format: cell-based, human; conditions: 4 h; for killing of T2 cells pre-treated with the same peptide by the cytotoxic T cells induced with the peptide: T2 cells pre-incubated with 50 μg/ml of exactly this peptide; for killing of T2 cells pre-treated with other peptides by the cytotoxic T cells induced with the peptide: T2 cells pre-incubated with other peptides
# Method: T2 cells which are distinguished by the fact that they can generate HLA-A2, but cannot present peptides synthesized by themselves via this MHC class I molecules, were pre-incubated with 50 μg/ml of synthetic peptide from 1.2 for two hours and marked with [^51Cr]-sodium chromate in RP10 at 37° C. for one hour. In each case 10^4 of these cells were transferred into each of a well of a 96-well-plate. Cytotoxic T cells that were generated before according to 1.3 were added, so that, respectively, an end volume of 200 μl per well was reached. Subsequently, incubation took place for four hours at 37° C. If now the cytotoxic T cells kill the cells that were labeled with ^51Cr before, they lyse these cells, and the ^51Cr contained in the cells is released. At the end of the experiment in the cell supernatants taken off, the released radioactivity is determined by counting in a β-counter. In that way, a measure for the cytotoxic activity of T cells is obtained.
Sequence,induction of cytotoxic T cells in vitro by means of dendritic cells (cytotoxic T cells),killing of T2 cells pre-treated with the same peptide by the cytotoxic T cells induced with the peptide (T2 cells),killing of T2 cells pre-treated with other peptides by the cytotoxic T cells induced with the peptide (T2 cells)
LLLLTVLTV [SEQ ID NO: 2],able to induce cytotoxic T cells,could kill only those cells which were pre-treated with the peptide with the sequence SEQ ID NO: 2,behave in the same way
STAPPVHNV [SEQ ID NO: 1],able to induce cytotoxic T cells,able to specifically kill,not able to kill
